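Briefly, cells in 96-well plates were exposed to five compound concentrations for 48 h, and endpoints were estimated by linear interpolation. GI50 = concentration required for 50% inhibition of growth. Definition used: TGI = concentration required for complete inhibition of growth.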
What was measured:
Assay in all cases: inhibition of tumour cell growth, NCI panel, 48 h
[1] = system: UO-31 renal
[2] = system: OVCAR-4 ovarian
[3] = system: TK-10 renal
[4] = system: NCI-H23 lung
[5] = system: NCI-H226 lung
[6] = system: K-562 leukemia
[7] = system: UACC-257 melanoma
[8] = system: MDA-MB-231 breast
[9] = system: IGROV1 ovarian
[10] = system: UACC-62 melanoma
[11] = system: MALME-3M melanoma
[12] = system: SK-OV-3 ovarian
[13] = system: SK-MEL-2 melanoma
[14] = system: SN12C renal
[15] = system: OVCAR-5 ovarian
[16] = system: SNB-19 CNS
[17] = system: HT29 colon
[18] = system: CAKI-1 renal
[19] = system: SR leukemia
[20] = system: MCF7 breast
[21] = system: SF-268 CNS
[22] = system: NCI-H522 lung
[23] = system: SF-539 CNS
[24] = system: COLO 205 colon
[25] = system: HCT-15 colon
[26] = system: A549 NSCLC
[27] = system: SK-MEL-28 melanoma
[28] = system: NCI-H460 lung
[29] = system: CCRF-CEM leukemia
[30] = system: HOP-62 NSCLC
[31] = system: SW-620 colon
[32] = system: HCC-2998 colon
[33] = system: T-47D breast
[34] = system: SNB-75 CNS
[35] = system: HS 578T breast
[36] = system: ACHN renal
[37] = system: SF-295 CNS
[38] = system: MDA-MB-435
[39] = system: OVCAR-8 ovarian
[40] = system: A498 renal
[41] = system: EKVX NSCLC
[42] = system: M14 melanoma
[43] = system: HCT-116 colon
[44] = system: MDA-N
[45] = system: MOLT-4 leukemia
[46] = system: PC-3 prostate
[47] = system: HOP-92 NSCLC
[48] = system: NCI/ADR-RES ovarian
[49] = system: DU-145 prostate
[50] = system: OVCAR-3 ovarian
[51] = system: 786-0 renal
[52] = system: KM12 colon
[53] = system: U251 CNS
[54] = system: RXF 393 renal
[55] = system: SK-MEL-5 melanoma
[56] = system: BT-549 breast
[57] = system: HL-60(TB) leukemia

In the case of C[C@H]1CCC/C=C/[C@@H]2C[C@H](O)C[C@H]2[C@H](O)[C@@H](SCC(O)CO)CC(=O)O1 (some centres undefined), the GI50 [1] is reported as 21.4 µM, the TGI [1] is reported as 71 µM and the GI50 [2] is reported as 4.17 µM. The TGI [2] was over 100 µM, the GI50 [3] was 48 µM and the TGI [3] was over 100 µM. For the same molecule, the GI50 [4] was 17.8 µM, the TGI [4] was 60.5 µM and the GI50 [5] was 18.7 µM. It also gave a TGI [5] of 44 µM, a GI50 [6] of 40.3 µM and a TGI [6] of over 100 µM. It also gave a GI50 [7] of 6.74 µM, a TGI [7] of over 100 µM and a GI50 [8] of 12.1 µM. The TGI [8] was 28.1 µM, the GI50 [9] was 37.2 µM and the TGI [9] was over 100 µM. The GI50 [10] was 16.3 µM, the TGI [10] was 82.2 µM and the GI50 [11] was over 100 µM. The TGI [11] was over 100 µM, the GI50 [12] was 34.7 µM and the TGI [12] was over 100 µM. The GI50 [13] was 25.2 µM, the TGI [13] was 66.9 µM and the GI50 [14] was 34.3 µM. For the same molecule, the TGI [14] was over 100 µM, the GI50 [15] was 41.1 µM and the TGI [15] was over 100 µM. For the same molecule, the GI50 [16] was 27.1 µM, the TGI [16] was 70.9 µM and the GI50 [17] was 10.2 µM. It also gave a TGI [17] of 40.8 µM, a GI50 [18] of 31.7 µM and a TGI [18] of 67.6 µM. It also gave a GI50 [19] of 29 µM, a TGI [19] of 96.8 µM and a GI50 [20] of 20.5 µM. The TGI [20] was 47.8 µM, the GI50 [21] was 10.9 µM and the TGI [21] was over 100 µM. The GI50 [22] was 95.6 µM, the TGI [22] was over 100 µM and the GI50 [23] was 31.8 µM. For the same molecule, the TGI [23] was over 100 µM, the GI50 [24] was 17.5 µM and the TGI [24] was 34.4 µM. For the same molecule, the GI50 [25] was 18.9 µM, the TGI [25] was 46.2 µM and the GI50 [26] was 34.4 µM. It also gave a TGI [26] of over 100 µM, a GI50 [27] of 13.3 µM and a TGI [27] of over 100 µM. The GI50 [28] was 26.3 µM, the TGI [28] was over 100 µM and the GI50 [29] was 34.1 µM. It also gave a TGI [29] of over 100 µM, a GI50 [30] of 33.2 µM and a TGI [30] of over 100 µM. It also gave a GI50 [31] of 30.9 µM, a TGI [31] of over 100 µM and a GI50 [32] of 14.3 µM. For the same molecule, the TGI [32] was 42.2 µM, the GI50 [33] was 45.2 µM and the TGI [33] was over 100 µM. The GI50 [34] was 6.77 µM, the TGI [34] was over 100 µM and the GI50 [35] was 9.52 µM. For the same molecule, the TGI [35] was over 100 µM, the GI50 [36] was 25.7 µM and the TGI [36] was 92.8 µM. For the same molecule, the GI50 [37] was 43.8 µM, the TGI [37] was over 100 µM and the GI50 [38] was 35.5 µM. For the same molecule, the TGI [38] was over 100 µM, the GI50 [39] was over 100 µM and the TGI [39] was over 100 µM. For the same molecule, the GI50 [40] was 24.4 µM, the TGI [40] was 50.2 µM and the GI50 [41] was 27.7 µM. It also gave a TGI [41] of over 100 µM, a GI50 [42] of 12.4 µM and a TGI [42] of over 100 µM. For the same molecule, the GI50 [43] was 35.5 µM, the TGI [43] was over 100 µM and the GI50 [44] was 25.5 µM. The TGI [44] was over 100 µM, the GI50 [45] was 27.1 µM and the TGI [45] was 84.3 µM. The GI50 [46] was 32.8 µM, the TGI [46] was over 100 µM and the GI50 [47] was 37.7 µM. For the same molecule, the TGI [47] was over 100 µM, the GI50 [48] was over 100 µM and the TGI [48] was over 100 µM. The GI50 [49] was 17.8 µM, the TGI [49] was 39.2 µM and the GI50 [50] was 22.3 µM. It also gave a TGI [50] of 63.3 µM, a GI50 [51] of 2.75 µM and a TGI [51] of 15 µM. The GI50 [52] was 3.81 µM, the TGI [52] was 20 µM and the GI50 [53] was 42.3 µM. The TGI [53] was over 100 µM, the GI50 [54] was 4.42 µM and the TGI [54] was 20.1 µM. For the same molecule, the GI50 [55] was 6.3 µM, the TGI [55] was 19.5 µM and the GI50 [56] was 69.2 µM. For the same molecule, the TGI [56] was over 100 µM, the GI50 [57] was 29.3 µM and the TGI [57] was 94.7 µM.

Reference: PubChem BioAssay (NCI)
